According to US9029092B2, “Solution phase homogeneous assays” (Beckman Coulter, Inc., priority 2009, dated 2015):
Like-named read-outs stand apart in the source and are kept apart here.

Key:
PSA = assay: Screening SSIA by homogeneous PSA immunoassay (anti-PSA-AK1 + anti-PSA-HRP); type: biochemical, human
Protocol: This example presents one method used for testing of candidate compounds for functionality as SSIA in assays of the present disclosure. Testing was conducted in a model screening immunoassay of the protein PSA. Tests were run using a 96-well microtiter plate format. A solution containing 30 μL of mouse anti-PSA-AK1 (66 ng), 30 μL of mouse anti-PSA-HRP conjugate (7.8 ng), 36 μL of human female serum, and 24 μL of PSA calibrator were pipetted into each well. The plate was incubated at 37° C. for 10 minutes. A 5 μL aliquot of the test compound (various concentrations) was added to each well. Chemiluminescence was triggered by the addition of 100 μL of a solution of a trigger solution whose composition is listed below. The chemiluminescent flash was integrated for 5 seconds after the addition of the trigger solution using a Luminoskan Asent® plate luminometer, (Thermo Fischer Scientific, Inc., Waltham, Mass.).
It is desirable that the improvement factor be at least 2 (S5/S0≧ about 20-30) and more desirable that improvement factor be at least 5 (S5/S0≧ about 50), yet more desirable that S5/S0 be ≧100 in the present screen.

TnI = assay: Assays utilizing various SSIA in TnI assay; type: biochemical; details: for Signal/Noise S1/S0: calibrator S1; for Signal/Noise S2/S0: calibrator S2; for Signal/Noise S3/S0: calibrator S3; for Signal/Noise S4/S0: calibrator S4; for Signal/Noise S5/S0: calibrator S5; for Signal/Noise S6/S0: calibrator S6
Protocol: In a reaction tube, 400 uL of TnI M6 antibody-HRP conjugate at 0.5 ug/mL in buffered aqueous solution at pH. 8.0 (100 mM Tris, 150 mM NaCl, 0.1 mM EDTA, 0.2% Tween-20 and 1% BSA), 400 uL of AK1˜Dex70/31˜Streptavidin (fraction 1) 2:1 SA/Ab at 2 ug/mL Ab also in buffered aqueous solution at pH 8.0, and 400 uL of calibrator standard solution containing the TnI analyte at a known concentration. One tube was prepared for each calibrator concentration. […] Next, 25 uL of each antioxidant as a concentrated solution of 2 mM, 1 mM or 0.5 mM was pipetted into the plate wells using a repeater pipette. The plates were rotated for 10 seconds to mix and incubated between 5 to 33 minutes. Detection was performed with a SpectraMax L injection plate luminometer.

biotinylated HRP = assay: Model system for selection of SSIA (AK1/streptavidin BSA microparticles + biotinylated HRP); type: biochemical, horseradish; details: SSIA 100 μM final; for light intensity, BTN-HRP0: Btn-HRP 0 ng/mL; for light intensity, BTN-HRP0 / light intensity, BTN-HRP1 / light intensity, BTN-HRP10 / light intensity, BTN-HRP100 / light intensity, BTN-HRP250: total HRP 500 ng/mL; for S1/S0: Btn-HRP 1 ng/mL vs 0; for light intensity, BTN-HRP1: Btn-HRP 1 ng/mL; for S2/S0: Btn-HRP 10 ng/mL vs 0; for light intensity, BTN-HRP10: Btn-HRP 10 ng/mL; for S3/S0: Btn-HRP 100 ng/mL vs 0; for light intensity, BTN-HRP100: Btn-HRP 100 ng/mL; for S4/S0: Btn-HRP 250 ng/mL vs 0; for light intensity, BTN-HRP250: Btn-HRP 250 ng/mL
Protocol: The model system uses a microparticle conjugated to BSA (bovine serum albumin) labeled with a […] and acridan ketenedithioacetal chemiluminescent label (AK1) as the chemiluminescent-labeled sbp, and biotinylated HRP as the activator-labeled specific binding pair. In the model system, varying amounts of Btn-HRP is added to the chemiluminescent-labeled specific binding pair at 0, 1, 10, 100 and 250 ng/mL. Additional unlabeled HRP is added to reach a total HRP of concentration of 500 ng/mL in each reaction mixture. The unlabeled HRP in combination with the activator-labeled sbp was provided to the chemiluminescent-labeled sbp microparticles to emulate sample. A compound for assessment as an SSIA was also added. This reaction mixture of the model system is then triggered by addition of trigger solution in a manner of assays of the present disclosure.
To prepare the chemiluminescent-labeled sbp on microparticles, Bovine Serum Albumin (BSA) was biotinylated with 4× molar excess of biotin-LC-sulfoNHS (Pierce Biotechnology Inc., Rockford, Ill., USA). Unbound reactants were removed via desalting or dialysis. The biotin-BSA was then reacted with a 5× molar excess of an NHS ester of acridan ketenedithioacetal AK1 in 20 mM sodium phosphate pH 7.2: DMSO 75:25, v/v) followed by desalting in the same buffer. The dual labeled (biotin and AK1) BSA was then coupled with tosyl activated M280 microparticles (Invitrogen Corporation, Carlsbad, Calif., USA) in a 0.1M borate buffer pH 9.5 at a concentration of about 20 μg of labeled BSA per mg of microparticles for 16-24 h at 40° C. After coupling the microparticles were stripped for 1 h at 40° C. with 0.2 M TRIS base, 2% SDS, pH˜11. The stripping process was repeated one additional time. Microparticles were then suspended in a 0.1% BSA/TRIS buffered saline (BSA/TBS) buffer and streptavidin (SA) was added at approximately 15 μg SA per mg microparticles. Streptavidin was mixed with the microparticles for 45-50 min at room temperature. The microparticles were then washed three times and suspended in the same BSA/TBS.
HRP, (Roche Diagnostics, Indianapolis, Ind., USA) was biotinylated with 4× molar excess of biotin-LC-sulfoNHS (Pierce Biotechnology Inc., Rockford, Ill., USA). Alternatively, 25× molar excess of biotin-PEO4-NHS may be used. Unbound reactants were removed via desalting or dialysis.
Each SSIA compound for assessment was solubilized in Buffer II at a concentration at least 10× of the working strength concentration.
25 μl of 1 mg/ml of dual-labeled (biotin and AK1) BSA M280 particles were mixed with 45 μl of working concentration SSIA in Buffer II. The assay volume brought to 85 μl by adding 15 μl of Buffer II. 15 μl of sample containing Btn-HRP:HRP at different ratios (The amount of biotinylated-HRP varied from 0, 1, 10, 100 and 250 ng/mL) was added. The reaction mixture was incubated for 30 min at 37° C., then 100 μL of trigger solution was added and the light intensity recorded. Total volume of reaction mixture, including trigger solution was 200 μL with a final concentration of 100 μM of SSIA.
The screening tests were performed using a modified DxI® Immunoassay System (Beckman Coulter, Inc. Brea, Calif.) as described above.

[1] = test compound final conc. […] ([…]), S5 = 129 ng PSA/mL vs zero PSA
[2] = SSIA final concentration 6.25 uM
[3] = SSIA final concentration 12.5 uM
[4] = SSIA final concentration 125 uM
[5] = SSIA final concentration 250 uM
[6] = SSIA final concentration 500 uM

O=c1c(O)c(-c2ccccc2)oc2ccc(O)cc12
S5/S0 (PSA; [1]): 9

Nc1ccc(O)cc1O
S5/S0 (PSA; test compound final conc. 0.030 mM): 161

c1ccc2c(c1)Nc1ccccc1O2 [phenoxazine]
Signal/Noise S1/S0 (TnI; [2]): 1.5
Signal/Noise S1/S0 (TnI; [3]): 1.5
Signal/Noise S1/S0 (TnI; SSIA final concentration 25 uM): 1.3
Signal/Noise S2/S0 (TnI; [2]): 3.1
Signal/Noise S2/S0 (TnI; [3]): 2.3
Signal/Noise S2/S0 (TnI; SSIA final concentration 25 uM): 1.6
Signal/Noise S3/S0 (TnI; [2]): 8.4
Signal/Noise S3/S0 (TnI; [3]): 6.4
Signal/Noise S3/S0 (TnI; SSIA final concentration 25 uM): 3.7
Signal/Noise S4/S0 (TnI; [2]): 32.1
Signal/Noise S4/S0 (TnI; [3]): 24.5
Signal/Noise S4/S0 (TnI; SSIA final concentration 25 uM): 12.1
Signal/Noise S5/S0 (TnI; [2]): 227.2
Signal/Noise S5/S0 (TnI; [3]): 147.2
Signal/Noise S5/S0 (TnI; SSIA final concentration 25 uM): 62.8
Signal/Noise S6/S0 (TnI; [2]): 2049.8
Signal/Noise S6/S0 (TnI; [3]): 1116.9
Signal/Noise S6/S0 (TnI; SSIA final concentration 25 uM): 387.3

c1ccc2c(c1)Cc1ccccc1N2
S5/S0 (PSA): 120

O=C(O)c1cccc(O)c1O
S5/S0 (PSA; [1]): 22

Cc1c(C)c2c(c(C)c1O)CCC(C)(C(=O)O)O2 (stereo not shown) [Trolox ®]
light intensity, BTN-HRP0 (biotinylated HRP): 173
S1/S0 (biotinylated HRP): 8.4
light intensity, BTN-HRP1 (biotinylated HRP): 1,460
S2/S0 (biotinylated HRP): 215.1
light intensity, BTN-HRP10 (biotinylated HRP): 37,291
S3/S0 (biotinylated HRP): 41832.7
light intensity, BTN-HRP100 (biotinylated HRP): 7,251,008
S4/S0 (biotinylated HRP): 62274.5
light intensity, BTN-HRP250 (biotinylated HRP): 10,794,247
effectiveness as SSIA in the model system (biotinylated HRP): demonstrating utility as SSIA
Signal/Noise S1/S0 (TnI; [4]): 1.6
Signal/Noise S1/S0 (TnI; [5]): 2.0
Signal/Noise S1/S0 (TnI; [6]): 1.7
Signal/Noise S2/S0 (TnI; [4]): 3.3
Signal/Noise S2/S0 (TnI; [5]): 3.5
Signal/Noise S2/S0 (TnI; [6]): 2.6
Signal/Noise S3/S0 (TnI; [4]): 11.5
Signal/Noise S3/S0 (TnI; [5]): 12.8
Signal/Noise S3/S0 (TnI; [6]): 11.3
Signal/Noise S4/S0 (TnI; [4]): 44.4
Signal/Noise S4/S0 (TnI; [5]): 45.8
Signal/Noise S4/S0 (TnI; [6]): 31.1
Signal/Noise S5/S0 (TnI; [4]): 302.0
Signal/Noise S5/S0 (TnI; [5]): 295.1
Signal/Noise S5/S0 (TnI; [6]): 192.0
Signal/Noise S6/S0 (TnI; [4]): 2713.1
Signal/Noise S6/S0 (TnI; [5]): 2334.5
Signal/Noise S6/S0 (TnI; [6]): 1181.7

Nc1ccccc1B(O)O
S5/S0 (PSA; [1]): 108

O=C(O)/C=C/c1ccc(O)c(O)c1
S5/S0 (PSA; [1]): 116

Nc1ccccc1O [2-amino phenol, 2-aminophenol]
light intensity, BTN-HRP0 (biotinylated HRP): 65
S1/S0 (biotinylated HRP): 5.5
light intensity, BTN-HRP1 (biotinylated HRP): 356
S2/S0 (biotinylated HRP): 132.8
light intensity, BTN-HRP10 (biotinylated HRP): 8,632
S3/S0 (biotinylated HRP): 32195.4
light intensity, BTN-HRP100 (biotinylated HRP): 2,092,703
S4/S0 (biotinylated HRP): 61672.1
light intensity, BTN-HRP250 (biotinylated HRP): 4,008,689
effectiveness as SSIA in the model system (biotinylated HRP): demonstrating utility as SSIA
Signal/Noise S1/S0 (TnI; [4]): 1.4
Signal/Noise S1/S0 (TnI; [5]): 0.9
Signal/Noise S1/S0 (TnI; [6]): 1.3
Signal/Noise S2/S0 (TnI; [4]): 2.3
Signal/Noise S2/S0 (TnI; [5]): 1.7
Signal/Noise S2/S0 (TnI; [6]): 1.8
Signal/Noise S3/S0 (TnI; [4]): 7.6
Signal/Noise S3/S0 (TnI; [5]): 4.5
Signal/Noise S3/S0 (TnI; [6]): 4.8
Signal/Noise S4/S0 (TnI; [4]): 27.2
Signal/Noise S4/S0 (TnI; [5]): 15.4
Signal/Noise S4/S0 (TnI; [6]): 10.8
Signal/Noise S5/S0 (TnI; [4]): 183.7
Signal/Noise S5/S0 (TnI; [5]): 101.7
Signal/Noise S5/S0 (TnI; [6]): 52.5
Signal/Noise S6/S0 (TnI; [4]): 1604.7
Signal/Noise S6/S0 (TnI; [5]): 739.1
Signal/Noise S6/S0 (TnI; [6]): 329.9

NN [NH2NH2]
S5/S0 (PSA; test compound final conc. 0.244 mM (244 uM)): 15

CC1(C)OC(=O)C(O)=C1O
S5/S0 (PSA; [1]): 467

O=C1O[C@H]([C@@H](O)CO)C(O)=C1O [drawing 89]
S5/S0 (PSA; [1]): 423

COc1ccccc1N
S5/S0 (PSA; [1]): 7

Nc1c(O)ccc2ccccc12
S5/S0 (PSA; [1]): 63

O=c1ccc2cc(O)c(O)cc2o1
S5/S0 (PSA; [1]): 105

C[C@H]1OC(=O)C(O)=C1O
S5/S0 (PSA; [1]): 423

Nc1cc(C[C@H](N)C(=O)O)ccc1O [3-Amino Tyrosine]
Signal/Noise S1/S0 (TnI; [4]): 1.5
Signal/Noise S1/S0 (TnI; [5]): 1.7
Signal/Noise S1/S0 (TnI; [6]): 1.1
Signal/Noise S2/S0 (TnI; [4]): 2.8
Signal/Noise S2/S0 (TnI; [5]): 2.7
Signal/Noise S2/S0 (TnI; [6]): 1.9
Signal/Noise S3/S0 (TnI; [4]): 9.0
Signal/Noise S3/S0 (TnI; [5]): 8.1
Signal/Noise S3/S0 (TnI; [6]): 5.9
Signal/Noise S4/S0 (TnI; [4]): 32.2
Signal/Noise S4/S0 (TnI; [5]): 31.1
Signal/Noise S4/S0 (TnI; [6]): 19.8
Signal/Noise S5/S0 (TnI; [4]): 234.8
Signal/Noise S5/S0 (TnI; [5]): 217.9
Signal/Noise S5/S0 (TnI; [6]): 118.6
Signal/Noise S6/S0 (TnI; [4]): 2268.7
Signal/Noise S6/S0 (TnI; [5]): 1772.4
Signal/Noise S6/S0 (TnI; [6]): 766.3

CC1(C)OC[C@@H]([C@H]2OC(=O)C(O)=C2O)O1 [5,6iso-propyliene ascorbic acid]
light intensity, BTN-HRP0 (biotinylated HRP): 264
S1/S0 (biotinylated HRP): 3.6
light intensity, BTN-HRP1 (biotinylated HRP): 961
S2/S0 (biotinylated HRP): 112.3
light intensity, BTN-HRP10 (biotinylated HRP): 29,645
S3/S0 (biotinylated HRP): 18626.9
light intensity, BTN-HRP100 (biotinylated HRP): 4,917,499
S4/S0 (biotinylated HRP): 33275
light intensity, BTN-HRP250 (biotinylated HRP): 8,784,595
effectiveness as SSIA in the model system (biotinylated HRP): demonstrating utility as SSIA
